{
  "source": "ChEMBL document CHEMBL5576123",
  "about": "“Interaction of Cephalosporins with Human Serum Albumin: A Structural Study” (J Med Chem, 2024)",
  "key": {"[1]": {"assay": "Protein binding in plasma (unknown origin)", "type": "ADME, cell-free", "conditions": "read-out: PPB (converted)"}, "[2]": {"tested_on": "Escherichia coli", "assay": "Antibacterial activity against Escherichia coli ATCC 25922 assessed as inhibition of bacterial growth at 0.6 mM incubated for 24 hrs by broth microdilution method", "type": "functional, organism-based"}, "[3]": {"tested_on": "Escherichia coli", "assay": "Antibacterial activity against Escherichia coli ATCC 25922 assessed as inhibition of bacterial growth incubated for 24 hrs in absence of HSA by broth microdilution method", "type": "functional"}, "[4]": {"tested_on": "Escherichia coli", "assay": "Antibacterial activity against Escherichia coli ATCC 25922 assessed as inhibition of bacterial growth incubated for 24 hrs in presence of HSA by broth microdilution method", "type": "functional"}, "[5]": {"tested_on": "Escherichia coli", "assay": "Ratio of MIC>90 against Escherichia coli ATCC 25922 in presence of HSA to MIC>90 against Escherichia coli ATCC 25922 in absence of HSA", "type": "functional"}, "[6]": {"target": "T1, Albumin (Homo sapiens, UniProt P02768)", "T1 sequence (P02768 whole entry)": "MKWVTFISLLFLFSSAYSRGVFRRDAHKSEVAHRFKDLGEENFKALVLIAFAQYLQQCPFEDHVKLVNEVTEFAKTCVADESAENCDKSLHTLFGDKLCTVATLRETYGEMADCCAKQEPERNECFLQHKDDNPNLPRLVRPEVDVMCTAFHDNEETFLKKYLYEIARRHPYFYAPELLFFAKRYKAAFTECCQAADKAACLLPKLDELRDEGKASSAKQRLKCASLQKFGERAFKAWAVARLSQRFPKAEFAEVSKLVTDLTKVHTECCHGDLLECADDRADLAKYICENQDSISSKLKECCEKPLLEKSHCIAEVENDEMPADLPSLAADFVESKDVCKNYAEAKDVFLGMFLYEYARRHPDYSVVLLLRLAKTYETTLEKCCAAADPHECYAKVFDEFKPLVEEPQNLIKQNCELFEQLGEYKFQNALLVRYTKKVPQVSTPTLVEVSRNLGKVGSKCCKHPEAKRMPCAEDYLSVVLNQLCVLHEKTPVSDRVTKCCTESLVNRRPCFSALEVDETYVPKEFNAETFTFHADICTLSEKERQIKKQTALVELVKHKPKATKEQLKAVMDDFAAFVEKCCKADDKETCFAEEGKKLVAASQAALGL", "assay": "Binding affinity to human serum albumin incubated for 18 hrs by equilibrium dialysis method", "type": "ADME", "conditions": "isolated protein"}, "[7]": {"target": "T1, Albumin", "assay": "Binding affinity to human serum albumin incubated for 18 hrs in presence of 40 uM bicalutamide by equilibrium dialysis method", "type": "ADME", "conditions": "isolated protein"}, "[8]": {"target": "T1, Albumin", "assay": "Binding affinity to human serum albumin incubated for 18 hrs in presence of 80 uM bicalutamide by equilibrium dialysis method", "type": "ADME", "conditions": "isolated protein"}, "[9]": {"tested_on": "Escherichia coli", "assay": "Antibacterial activity against Escherichia coli ATCC 25922 assessed as inhibition of bacterial growth incubated for 24 hrs in presence of warfarin by broth microdilution method", "type": "functional"}, "[10]": {"tested_on": "Escherichia coli", "assay": "Antibacterial activity against Escherichia coli ATCC 25922 assessed as inhibition of bacterial growth at 0 to 8 ug/ml incubated for 24 hrs in presence of HSA by broth microdilution method", "type": "functional, organism-based", "conditions": "dose 0-8 µg/ml"}},
  "note": "The source made the active and inactive calls. No cut-off for these calls is given here.",
  "data": [
    {"smiles": "Cn1c(N)c(NC(=O)NCCN)c[n+]1CC1=C(C(=O)O)N2C(=O)[C@@H](NC(=O)/C(=N\\OC(C)(C)C(=O)[O-])c3nsc(N)n3)[C@H]2SC1", "note": "[CEFTOLOZANE]", "values": [
      {"measurement": "fraction unbound", "setting": "[1]", "result": 0.8}
    ]},
    {"smiles": "C=CC1=C(C(=O)O)N2C(=O)[C@@H](NC(=O)/C(=N\\OCC(=O)O)c3csc(N)n3)[C@H]2SC1", "note": "[CEFIXIME]", "values": [
      {"measurement": "fraction unbound", "setting": "[1]", "result": 0.35}
    ]},
    {"smiles": "CC1=C(C(=O)O)N2C(=O)[C@@H](NC(=O)[C@H](N)c3ccc(O)cc3)[C@H]2SC1", "note": "[CEFADROXIL]", "values": [
      {"measurement": "fraction unbound", "setting": "[1]", "result": 0.8}
    ]},
    {"smiles": "CCCCC1C(=O)N(c2ccccc2)N(c2ccccc2)C1=O", "values": [
      {"measurement": "Activity", "setting": "[2]", "result": "inactive"}
    ]},
    {"smiles": "CO/N=C(\\C(=O)N[C@@H]1C(=O)N2C(C(=O)O)=CCS[C@H]12)c1csc(N)n1", "note": "[CEFTIZOXIME]", "values": [
      {"measurement": "fraction unbound", "setting": "[1]", "result": 0.7}
    ]},
    {"smiles": "Nc1nc(/C(=C/CC(=O)O)C(=O)N[C@@H]2C(=O)N3C(C(=O)O)=CCS[C@H]23)cs1", "note": "[CEFTIBUTEN]", "values": [
      {"measurement": "fraction unbound", "setting": "[1]", "result": 0.35}
    ]},
    {"smiles": "N[C@@H](C(=O)N[C@@H]1C(=O)N2C(C(=O)O)=C(Cl)CS[C@H]12)c1ccccc1", "note": "[CEFACLOR ANHYDROUS]", "values": [
      {"measurement": "fraction unbound", "setting": "[1]", "result": 0.75}
    ]},
    {"smiles": "C=CC1=C(C(=O)O)N2C(=O)[C@@H](NC(=O)/C(=N\\O)c3csc(N)n3)[C@H]2SC1", "values": [
      {"measurement": "fraction unbound", "setting": "[1]", "result": 0.3}
    ]},
    {"smiles": "COCC1=C(C(=O)O)N2C(=O)[C@@H](NC(=O)/C(=N\\OC)c3csc(N)n3)[C@H]2SC1", "note": "[CEFPODOXIME]", "values": [
      {"measurement": "fraction unbound", "setting": "[1]", "result": 0.17}
    ]},
    {"smiles": "CN1C(=O)CN=C(c2ccccc2)c2cc(Cl)ccc21", "values": [
      {"measurement": "Activity", "setting": "[2]", "result": "inactive"}
    ]},
    {"smiles": "CO/N=C(\\C(=O)N[C@@H]1C(=O)N2C(C(=O)O)=C(COC(C)=O)CS[C@H]12)c1csc(N)n1", "note": "[CEFOTAXIME]", "values": [
      {"measurement": "fraction unbound", "setting": "[1]", "result": 0.5}
    ]},
    {"smiles": "CO/N=C(\\C(=O)N[C@@H]1C(=O)N2C(C(=O)O)=C(/C=C\\c3scnc3C)CS[C@H]12)c1csc(N)n1", "note": "[CEFDITOREN]", "values": [
      {"measurement": "fraction unbound", "setting": "[1]", "result": 0.12}
    ]},
    {"smiles": "Cc1nnc(SCC2=C(C(=O)O)N3C(=O)[C@@H](NC(=O)Cn4cnnn4)[C@H]3SC2)s1", "note": "[CEFAZOLIN]", "values": [
      {"measurement": "fraction unbound", "setting": "[1]", "result": 0.2},
      {"measurement": "MIC90", "setting": "[3]", "result": 2, "unit": "µg/mL"},
      {"measurement": "MIC90", "setting": "[4]", "result": 4, "unit": "µg/mL"},
      {"measurement": "Ratio", "setting": "[5]", "result": 2}
    ]},
    {"smiles": "CO/N=C(\\C(=O)N[C@@H]1C(=O)N2C(C(=O)O)=C(COC(N)=O)CS[C@H]12)c1ccco1", "note": "[CEFUROXIME]", "values": [
      {"measurement": "fraction unbound", "setting": "[1]", "result": 0.5}
    ]},
    {"smiles": "CC=CC1=C(C(=O)O)N2C(=O)[C@@H](NC(=O)[C@H](N)c3ccc(O)cc3)[C@H]2SC1", "note": "[CEFPROZIL]", "values": [
      {"measurement": "fraction unbound", "setting": "[1]", "result": 0.64}
    ]},
    {"smiles": "CC(O)(CS(=O)(=O)c1ccc(F)cc1)C(=O)Nc1ccc(C#N)c(C(F)(F)F)c1", "note": "(centres undefined)", "values": [
      {"measurement": "Activity", "setting": "[2]", "result": "inactive"}
    ]},
    {"smiles": "Nc1nc(/C(=N/O)C(=O)N[C@@H]2C(=O)N3C(C(=O)O)=C(/C=C4\\CCN([C@@H]5CCNC5)C4=O)CS[C@H]23)ns1", "note": "[CEFTOBIPROLE]", "values": [
      {"measurement": "fraction unbound", "setting": "[1]", "result": 0.84}
    ]},
    {"smiles": "CO/N=C(\\C(=O)N[C@@H]1C(=O)N2C(C(=O)[O-])=C(C[N+]3(C)CCCC3)CS[C@H]12)c1csc(N)n1", "values": [
      {"measurement": "fraction unbound", "setting": "[1]", "result": 0.8}
    ]},
    {"smiles": "CO[C@@]1(NC(=O)Cc2cccs2)C(=O)N2C(C(=O)O)=C(COC(N)=O)CS[C@@H]21", "note": "[CEFOXITIN]", "values": [
      {"measurement": "fraction unbound", "setting": "[1]", "result": 0.21}
    ]},
    {"smiles": "CCO/N=C(\\C(=O)N[C@@H]1C(=O)N2C(C(=O)[O-])=C(Sc3nc(-c4cc[n+](C)cc4)cs3)CS[C@H]12)c1nsc(N)n1", "note": "[CEFTAROLINE]", "values": [
      {"measurement": "fraction unbound", "setting": "[1]", "result": 0.8}
    ]},
    {"smiles": "CO/N=C(\\C(=O)N[C@@H]1C(=O)N2C(C(=O)O)=C(CSc3nc(=O)c(=O)[nH]n3C)CS[C@H]12)c1csc(N)n1", "note": "[CEFTRIAXONE]", "values": [
      {"measurement": "fraction unbound", "setting": "[1]", "result": 0.05},
      {"measurement": "MIC90", "setting": "[3]", "result": "≤ 0.12", "unit": "µg/mL"},
      {"measurement": "MIC90", "setting": "[4]", "result": 1, "unit": "µg/mL"},
      {"measurement": "K", "setting": "[6]", "result": "8.5 10^4/M"},
      {"measurement": "K", "setting": "[7]", "result": "5.01 10^4/M"},
      {"measurement": "K", "setting": "[8]", "result": "1.3 10^4/M"},
      {"measurement": "MIC90", "setting": "[9]", "result": 0.25, "unit": "µg/mL"}
    ]},
    {"smiles": "CO[C@@]1(NC(=O)C2SC(=C(C(N)=O)C(=O)O)S2)C(=O)N2C(C(=O)O)=C(CSc3nnnn3C)CS[C@@H]21", "note": "(some centres undefined) [CEFOTETAN]", "values": [
      {"measurement": "Activity", "setting": "[10]", "result": "inactive"},
      {"measurement": "fraction unbound", "setting": "[1]", "result": 0.12}
    ]},
    {"smiles": "CO/N=C(\\C(=O)N[C@@H]1C(=O)N2C(C(=O)[O-])=C(C[n+]3cccc4c3CCC4)CS[C@H]12)c1csc(N)n1", "note": "[CEFPIROME]", "values": [
      {"measurement": "fraction unbound", "setting": "[1]", "result": 0.9}
    ]},
    {"smiles": "CC(C)(O/N=C(\\C(=O)N[C@@H]1C(=O)N2C(C(=O)[O-])=C(C[n+]3ccccc3)CS[C@H]12)c1csc(N)n1)C(=O)O", "note": "[CEFTAZIDIME]", "values": [
      {"measurement": "fraction unbound", "setting": "[1]", "result": 0.91}
    ]}
  ]
}
